# Legend:
# [1] = tested on: mouse model of rheumatoid arthritis; conditions: Nature Medicine, 2005, 11, 936-943; cited from earlier work
# [2] = tested on: model of systemic lupus erythematosis; conditions: Nature Medicine, 2005, 11, 933-935; cited from earlier work
# [3] = Compound stability in human liver microsomes; assay type: in vitro ADME
# [4] = Compound stability in rat liver microsomes; assay type: in vitro ADME; conditions: pH 7.4
# [5] = Pharmacokinetics after intravenous and oral administration in rats; assay type: in vivo, rat
# [6] = Pharmacokinetics after intravenous and oral administration in mice; assay type: in vivo; conditions: Mouse
# [7] = Pharmacokinetics after intravenous and oral administration in dogs; assay type: in vivo; conditions: Dog
# [8] = Pharmacokinetics after intravenous and oral administration in monkeys; assay type: in vivo; conditions: Monkey
# [9] = target: PI3K (p110α/p85α) (h) (Homo sapiens (Human), UniProt P42336); assay: PI3K (p110α/p85α) (h) non-radioactive HTRF kinase assay; assay type: biochemical
# [10] = target: PI3K (p110β/p85α) (h) (Homo sapiens (Human), UniProt P42338); assay: PI3K (p110β/p85α) (h) non-radioactive HTRF kinase assay; assay type: biochemical
# [11] = target: PI3K (p110δ/p85α) (h) (Homo sapiens (Human), UniProt O00329); assay: PI3K (p110δ/p85α) (h) non-radioactive HTRF kinase assay; assay type: biochemical
# [12] = target: PI3K (p120γ) (h) (Homo sapiens (Human), UniProt P48736); assay: PI3K (p120γ) (h) non-radioactive HTRF kinase assay; assay type: biochemical
# [13] = target: PI3Kδ (Homo sapiens, UniProt O00329); conditions: Cell, 2006, 125, 733-747; cited from earlier work
# [14] = tested on: murine model of asthma; conditions: ovalbumin-induced airway inflammation; FASEB, 2006, 20: 455-465; cited from earlier work
# [15] = rat, plasma, iv dosing, dose 1 mg/kg
# [16] = plasma, iv dosing, dose 1 mg/kg
# [17] = plasma, iv dosing, dose 1 mg/kg, read-out: Vss
# [18] = plasma, iv dose 1 mg/kg, oral dose generally 10 mg/kg
# Sequence of PI3K (p110α/p85α) (h) (P42336 whole entry): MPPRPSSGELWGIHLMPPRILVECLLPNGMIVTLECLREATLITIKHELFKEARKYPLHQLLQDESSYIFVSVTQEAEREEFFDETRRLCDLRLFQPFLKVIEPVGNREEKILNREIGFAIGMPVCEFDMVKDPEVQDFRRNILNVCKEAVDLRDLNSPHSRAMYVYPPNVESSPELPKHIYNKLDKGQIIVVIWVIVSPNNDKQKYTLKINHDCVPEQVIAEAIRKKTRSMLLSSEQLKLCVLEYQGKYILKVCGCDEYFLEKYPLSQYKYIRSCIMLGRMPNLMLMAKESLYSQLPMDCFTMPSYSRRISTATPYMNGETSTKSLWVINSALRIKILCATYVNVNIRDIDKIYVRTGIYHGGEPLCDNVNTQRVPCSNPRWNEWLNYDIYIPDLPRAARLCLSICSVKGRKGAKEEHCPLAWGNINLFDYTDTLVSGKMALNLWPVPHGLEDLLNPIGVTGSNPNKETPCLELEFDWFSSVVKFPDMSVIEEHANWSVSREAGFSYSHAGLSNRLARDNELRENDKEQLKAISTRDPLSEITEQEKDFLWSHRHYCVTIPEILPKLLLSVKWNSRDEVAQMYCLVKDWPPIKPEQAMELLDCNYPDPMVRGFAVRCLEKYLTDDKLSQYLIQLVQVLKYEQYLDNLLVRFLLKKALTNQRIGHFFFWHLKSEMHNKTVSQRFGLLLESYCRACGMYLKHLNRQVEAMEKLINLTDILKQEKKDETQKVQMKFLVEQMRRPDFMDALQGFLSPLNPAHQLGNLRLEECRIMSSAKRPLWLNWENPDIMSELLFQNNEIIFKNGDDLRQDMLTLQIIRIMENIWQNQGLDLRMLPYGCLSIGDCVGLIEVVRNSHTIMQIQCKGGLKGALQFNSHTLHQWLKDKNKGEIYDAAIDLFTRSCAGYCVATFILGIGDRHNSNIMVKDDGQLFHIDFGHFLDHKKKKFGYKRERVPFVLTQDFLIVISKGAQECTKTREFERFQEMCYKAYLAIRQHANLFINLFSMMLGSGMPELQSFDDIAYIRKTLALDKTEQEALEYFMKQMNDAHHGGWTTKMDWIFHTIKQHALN
# Sequence of PI3K (p110α/p85α) (h) (P27986 whole entry partner): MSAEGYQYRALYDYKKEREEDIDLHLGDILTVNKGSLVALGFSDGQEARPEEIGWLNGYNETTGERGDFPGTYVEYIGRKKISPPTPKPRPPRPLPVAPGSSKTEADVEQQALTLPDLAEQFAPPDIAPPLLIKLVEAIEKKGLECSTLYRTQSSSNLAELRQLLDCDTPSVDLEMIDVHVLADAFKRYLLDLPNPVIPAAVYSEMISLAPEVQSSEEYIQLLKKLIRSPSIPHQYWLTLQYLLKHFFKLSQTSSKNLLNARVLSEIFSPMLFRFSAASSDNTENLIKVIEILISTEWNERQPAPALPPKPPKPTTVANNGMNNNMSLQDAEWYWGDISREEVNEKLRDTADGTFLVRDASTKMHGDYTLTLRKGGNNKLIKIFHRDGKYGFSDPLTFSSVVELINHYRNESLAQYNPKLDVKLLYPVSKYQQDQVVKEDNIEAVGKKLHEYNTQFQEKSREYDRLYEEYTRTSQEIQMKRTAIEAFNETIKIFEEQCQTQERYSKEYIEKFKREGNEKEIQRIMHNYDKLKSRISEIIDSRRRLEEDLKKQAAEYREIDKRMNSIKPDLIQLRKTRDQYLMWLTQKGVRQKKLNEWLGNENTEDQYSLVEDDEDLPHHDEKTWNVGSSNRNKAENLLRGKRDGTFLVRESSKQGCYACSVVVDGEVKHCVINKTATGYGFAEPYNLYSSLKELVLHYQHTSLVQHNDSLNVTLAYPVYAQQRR
# Sequence of PI3K (p110β/p85α) (h) (P42338 whole entry): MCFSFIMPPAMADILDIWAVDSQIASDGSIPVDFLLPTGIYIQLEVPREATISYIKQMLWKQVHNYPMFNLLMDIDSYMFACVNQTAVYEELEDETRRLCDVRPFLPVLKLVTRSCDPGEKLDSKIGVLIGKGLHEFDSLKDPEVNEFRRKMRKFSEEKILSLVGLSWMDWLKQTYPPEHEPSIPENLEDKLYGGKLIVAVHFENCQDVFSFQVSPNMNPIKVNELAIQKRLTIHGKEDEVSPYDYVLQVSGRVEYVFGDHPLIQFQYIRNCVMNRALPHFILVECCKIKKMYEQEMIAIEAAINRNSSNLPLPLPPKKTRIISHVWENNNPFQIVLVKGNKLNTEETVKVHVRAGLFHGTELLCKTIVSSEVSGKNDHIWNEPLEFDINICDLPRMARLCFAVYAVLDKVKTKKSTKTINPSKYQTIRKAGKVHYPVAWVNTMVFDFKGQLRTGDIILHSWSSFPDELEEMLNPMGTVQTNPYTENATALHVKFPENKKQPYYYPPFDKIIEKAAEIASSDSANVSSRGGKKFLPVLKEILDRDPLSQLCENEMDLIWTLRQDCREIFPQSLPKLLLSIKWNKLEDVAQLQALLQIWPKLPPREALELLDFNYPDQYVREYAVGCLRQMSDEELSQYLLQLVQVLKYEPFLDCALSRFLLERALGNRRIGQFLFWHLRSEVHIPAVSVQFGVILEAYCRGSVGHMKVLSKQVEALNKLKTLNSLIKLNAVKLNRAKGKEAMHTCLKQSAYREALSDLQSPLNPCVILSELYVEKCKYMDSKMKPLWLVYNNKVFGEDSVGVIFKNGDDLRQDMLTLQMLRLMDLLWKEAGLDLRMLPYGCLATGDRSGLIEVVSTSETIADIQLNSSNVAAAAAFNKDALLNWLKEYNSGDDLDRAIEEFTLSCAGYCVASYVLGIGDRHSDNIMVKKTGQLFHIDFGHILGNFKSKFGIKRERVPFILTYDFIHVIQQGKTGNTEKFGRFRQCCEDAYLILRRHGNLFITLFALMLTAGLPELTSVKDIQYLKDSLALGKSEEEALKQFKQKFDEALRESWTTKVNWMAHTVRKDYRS
# Sequence of PI3K (p110β/p85α) (h) (P27986 whole entry partner): as the sequence (P27986 whole entry partner) above
# Sequence of PI3K (p110δ/p85α) (h) (O00329 whole entry): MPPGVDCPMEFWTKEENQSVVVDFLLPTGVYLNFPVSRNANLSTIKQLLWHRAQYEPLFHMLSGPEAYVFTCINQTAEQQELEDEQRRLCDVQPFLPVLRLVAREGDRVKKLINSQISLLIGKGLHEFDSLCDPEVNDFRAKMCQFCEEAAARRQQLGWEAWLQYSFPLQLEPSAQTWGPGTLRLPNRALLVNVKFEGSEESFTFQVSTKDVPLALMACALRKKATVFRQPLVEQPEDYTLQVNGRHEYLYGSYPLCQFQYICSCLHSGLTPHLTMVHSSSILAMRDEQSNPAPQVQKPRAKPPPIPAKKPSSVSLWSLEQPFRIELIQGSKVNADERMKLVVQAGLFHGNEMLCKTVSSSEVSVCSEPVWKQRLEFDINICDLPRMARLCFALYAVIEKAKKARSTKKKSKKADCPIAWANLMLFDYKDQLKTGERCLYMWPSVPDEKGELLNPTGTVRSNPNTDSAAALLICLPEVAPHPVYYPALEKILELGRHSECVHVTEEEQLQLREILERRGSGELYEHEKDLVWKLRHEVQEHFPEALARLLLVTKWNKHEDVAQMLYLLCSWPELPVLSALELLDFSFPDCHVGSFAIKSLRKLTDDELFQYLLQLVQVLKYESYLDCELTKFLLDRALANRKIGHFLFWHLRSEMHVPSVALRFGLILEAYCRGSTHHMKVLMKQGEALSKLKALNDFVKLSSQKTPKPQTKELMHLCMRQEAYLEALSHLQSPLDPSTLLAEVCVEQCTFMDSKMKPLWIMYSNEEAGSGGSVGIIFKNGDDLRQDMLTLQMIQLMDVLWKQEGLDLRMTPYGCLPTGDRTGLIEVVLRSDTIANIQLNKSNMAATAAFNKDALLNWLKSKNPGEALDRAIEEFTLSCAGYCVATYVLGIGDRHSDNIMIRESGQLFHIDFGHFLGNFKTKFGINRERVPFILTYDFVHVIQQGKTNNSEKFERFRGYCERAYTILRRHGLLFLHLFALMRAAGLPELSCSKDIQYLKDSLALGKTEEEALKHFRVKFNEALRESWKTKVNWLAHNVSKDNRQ
# Sequence of PI3K (p110δ/p85α) (h) (P27986 whole entry partner): as the sequence (P27986 whole entry partner) above
# Sequence of PI3K (p120γ) (h) (P48736 whole entry): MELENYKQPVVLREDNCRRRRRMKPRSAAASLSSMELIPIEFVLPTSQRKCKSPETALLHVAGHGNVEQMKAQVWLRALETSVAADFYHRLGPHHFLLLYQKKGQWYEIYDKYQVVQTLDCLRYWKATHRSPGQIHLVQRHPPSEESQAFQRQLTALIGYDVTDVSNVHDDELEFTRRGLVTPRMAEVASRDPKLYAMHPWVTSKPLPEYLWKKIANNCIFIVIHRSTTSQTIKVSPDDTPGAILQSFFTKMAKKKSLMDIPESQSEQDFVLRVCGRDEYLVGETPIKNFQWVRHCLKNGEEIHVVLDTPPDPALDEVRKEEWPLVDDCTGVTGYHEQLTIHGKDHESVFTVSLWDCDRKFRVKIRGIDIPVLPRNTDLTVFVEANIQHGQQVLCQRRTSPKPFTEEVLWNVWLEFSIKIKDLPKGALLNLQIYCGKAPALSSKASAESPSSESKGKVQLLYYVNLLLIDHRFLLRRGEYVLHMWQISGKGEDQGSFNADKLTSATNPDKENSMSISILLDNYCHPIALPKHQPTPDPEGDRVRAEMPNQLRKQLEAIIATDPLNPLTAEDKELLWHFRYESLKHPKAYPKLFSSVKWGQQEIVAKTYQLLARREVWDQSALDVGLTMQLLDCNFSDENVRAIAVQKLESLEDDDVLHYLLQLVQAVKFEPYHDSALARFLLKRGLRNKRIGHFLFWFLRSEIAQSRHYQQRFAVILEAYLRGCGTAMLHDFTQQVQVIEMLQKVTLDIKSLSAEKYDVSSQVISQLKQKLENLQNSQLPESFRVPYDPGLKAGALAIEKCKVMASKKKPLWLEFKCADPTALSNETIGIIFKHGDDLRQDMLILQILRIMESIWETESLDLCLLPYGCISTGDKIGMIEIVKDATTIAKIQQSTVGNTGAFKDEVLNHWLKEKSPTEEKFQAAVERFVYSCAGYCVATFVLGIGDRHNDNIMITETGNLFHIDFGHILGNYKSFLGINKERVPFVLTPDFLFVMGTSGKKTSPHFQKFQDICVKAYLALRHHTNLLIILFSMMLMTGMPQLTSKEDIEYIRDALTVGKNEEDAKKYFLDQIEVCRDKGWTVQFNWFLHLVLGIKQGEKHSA
smiles,measurement,setting,value
O=C1NC(=O)/C(=C\c2ccc3nccnc3c2)S1 [AS 605240],efficacy in a mouse model of rheumatoid arthritis,[1],efficacious
same,onset of disease in a model of systemic lupus erythematosis,[2],delay onset of disease
"Cc1noc(-c2c(N)ncnc2N[C@@H](C)c2nc3cccc(Cl)c3c(=O)n2-c2ccccc2)n1 [Ex. 65, (S)-2-(1-((6-amino-5-(3-methyl-1,2,4-oxadiazol-5-yl)pyrimidin-4-yl)amino)ethyl)-5-chloro-3-phenylquinazolin-4(3H)-one]",half-life at 5 μM,"[3]; human liver microsomes 0.5 mg protein/mL, compound 5 μM, NADPH 1.0 mM, 37° C.",33.1 min
same,CLint scaled at 5 μM,"[3]; human liver microsomes, in vivo CLint extrapolated",52.5 mL/min/kg
same,half-life at 5 μM,"[4]; rat liver microsomes 0.5 mg protein/mL, compound 5 μM, NADPH 1.0 mM, 37° C.",32.6 min
same,CLint scaled at 5 μM,"[4]; rat liver microsomes, in vivo CLint extrapolated",76.1 mL/min/kg
same,clearance (CL),"[5]; iv dosing, dose 1 mg/kg",7.74 L/h/kg
same,bioavailability,"[5]; rat, plasma, iv dose 1 mg/kg, oral dose generally 5 or 10 mg/kg",88.7%
same,AUC(0-t),[5]; [15],260 ng·h/mL
same,half-life,[5]; [15],54.2 min
same,Vd,"[5]; rat, plasma, iv dosing, dose 1 mg/kg, read-out: Vss",9.09 L/kg
same,CL/F,"[6]; iv dosing, dose 1 mg/kg",1.90 L/h/kg
same,bioavailability,"[6]; plasma, iv dose 1 mg/kg, oral dose generally 5 or 10 mg/kg",33.3%
same,AUC(0-t),[6]; [16],527 ng·h/mL
same,half-life,[6]; [16],47.4 min
same,Vd,[6]; [17],0.84 L/kg
same,CL/F,"[7]; iv dosing, dose 1 mg/kg",0.37 L/h/kg
same,bioavailability,[7]; [18],24.8%
same,AUC(0-t),[7]; [16],2690 ng·h/mL
same,half-life,[7]; [16],636 min
same,Vd,[7]; [17],4.25 L/kg
same,CL/F,"[8]; iv dosing, dose 1 mg/kg",0.92 L/h/kg
same,bioavailability,[8]; [18],10%
same,AUC(0-t),[8]; [16],1060 ng·h/mL
same,half-life,[8]; [16],403 min
same,Vd,[8]; [17],4.2 L/kg
same,IC50,[9],1010 nM
same,IC50,[10],154 nM
same,IC50,[11],2 nM
same,IC50,[12],37 nM
Cc1ccccc1-n1c(Cn2cnc3c(N)ncnc32)nc2cccc(C)c2c1=O [IC87114],inhibits PI3Kδ,[13],high nanomolar range (triple digit)
same,inflammation and disease in a murine model of asthma,[14],significantly ameliorate inflammation and disease

# Reference: patent publication US9670194B2 (Calitor Sciences, LLC, priority 2013, dated 2017)
